From US20110301102A1, “COMPOSITIONS AND METHODS FOR TREATING MYELODYSPLASTIC SYNDROME” (Telik, Inc., priority 2010, published 2011)

Key:
[1] = system: patients with MDS (IPSS low and intermediate-1 risk); experiment: Clinical study of Telintra (ezatiostat hydrochloride) in patients with MDS, two dosing schedules; details: for patients with significant RBC transfusion reduction: 5 of 11 patients
Description: Eighty-seven patients were randomized and treated at 23 investigational sites. After initial dose ranging in 14 patients, two dose levels were selected for further study. Subsequently, 37 patients were treated at 3 grams daily for two weeks followed by a one week rest period, and 36 patients were treated at 2 grams daily for three weeks followed by a one week rest period. The data on these 73 patients was pooled for this preliminary analysis.
The median age was 72 years, with a patient population distribution of International Prognostic Scoring System (IPSS) low risk (23 patients, 32%) and intermediate-1 risk (50 patients, 68%).

[2] = system: patients with MDS (IPSS low and intermediate-1 risk); details: one patient (Quddus et al.); cited from earlier work

With `CCOC(=O)[C@@H](N)CCC(=O)N[C@@H](CSCc1ccccc1)C(=O)N[C@@H](C(=O)OCC)c1ccccc1` [Telintra®, ethyl (2S)-2-amino-5-[[(2R)-3-benzylsulfanyl-1-[[(1R)-2-ethoxy-2-oxo-1-phenylethyl]amino]-1-oxopropan-2-yl]amino]-5-oxopentanoate] the “Duration of HI-E Response, Median (95% CI)” value ([1]; 1 g b.i.d. (2 grams per day) 3 weeks on & 1 week off) was 46.1 (10.0-46.1) Weeks, the “Duration of HI-E Response, Median (95% CI)” value ([1]; 1.5 g b.i.d. (3 grams per day) 2 weeks on & 1 week off) was 18.4 (3.1-51.0) Weeks and the “patients achieving RBC transfusion independence” value ([1]; 4 of 38 RBC transfusion-dependent patients, pooled) was 11%. For the same molecule, the “patients with clinically significant RBC transfusion reductions (reduction of 4 U/8 weeks, IWG 2006)” value ([1]; 11 of 38 RBC transfusion-dependent patients, pooled) was 29%, the “effect of prior DMTI treatment on GI adverse events” value ([1]; all patients treated) was “increased incidence of GI AEs” and the “incidence of diarrhea, Grade 1” value ([1]; all patients treated) was 25%. For the same molecule, the “incidence of diarrhea, Grade 2” value ([1]; all patients treated) was 7%, the “incidence of diarrhea, Grade 3” value ([1]; all patients treated) was 3% and the “incidence of nausea, Grade 1” value ([1]; all patients treated) was 45%. For the same molecule, the “incidence of nausea, Grade 2” value ([1]; all patients treated) was 16%, the “incidence of nausea, Grade 3” value ([1]; all patients treated) was 1% and the “incidence of vomiting, Grade 1” value ([1]; all patients treated) was 30%. For the same molecule, the “incidence of vomiting, Grade 2” value ([1]; all patients treated) was 12%, the “incidence of vomiting, Grade 3” value ([1]; all patients treated) was 2% and the “number of cytogenetic complete responses” value ([1]; all patients, pooled) was “three”. The “effect of prior Revlimid treatment on HI-E response” value ([1]; logistic regression analysis) was “enhance HI-E response”, the “change in the odds for a HI-E response with prior DMTI treatment” value ([1]; logistic regression analysis, p=0.023) was “five-fold decrease” and the “patients with significant RBC transfusion reduction” value ([1]; no prior Revlimid, no prior DMTI) was 45%. The “number of patients with complete cytogenetic response” value ([1]; of the four patients with del 5q minus) was “two”, the “patients achieving transfusion independence” value ([1]; prior Revlimid, no prior DMTI, 3 of 11 patients) was 27% and the “patients with significant RBC transfusion reduction” value ([1]; prior Revlimid, no prior DMTI) was 45%. For the same molecule, the “duration of complete remission following discontinuation of therapy” value [2] was “more than 12 months”.
